In PubChem BioAssay AID1963967 (Molecular Pharmacology Branch, DTP, NCI, 2024):

Test system: 855422-203-R-J1-PDC spheroids with HUVEC/MSC, viability
Assay: Anticancer human tumor 855422-203-R-J1-PDC patient-derived bladder carcinoma cell line growth inhibition [PI3K]
Settings: for IC50: curve of first compound; for viability, T/C: stronger effect = lower value
Summary of the method: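 High-throughput combination screen: PI3K inhibitors crossed with targeted small molecules on complex spheroids of tumor cells, HUVEC and MSCs at 37 degrees C, 5% CO2. Top concentration was at or near clinical Cmax (otherwise 10 microM), with half-log decrements.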
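Further: agents incubated with spheroids for one week before read-out.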
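Wherever viability, T/C is given: 100% = DMSO vehicle-treated control wells.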

`CC1(C)CCC(Nc2ncc(C(F)(F)F)c(-c3c[nH]c4c(P(C)(C)=O)c(C#N)ccc34)n2)CN1` (configuration not stated) + Cc1nc(NC(=O)N2CCCC2C(N)=O)sc1-c1ccnc(C(C)(C)C(F)(F)F)c1 showed an IC50 (second compound 0.0316 µM) of less than 31.6 nM, an IC50 (second compound 0.1 µM) of less than 31.6 nM and an IC50 (second compound 0.316 µM) of less than 31.6 nM. For the same compound, the IC50 (second compound 1 µM) was less than 31.6 nM, the IC50 (second compound 3.16 µM) was less than 31.6 nM and the IC50 (second compound 10 µM) was less than 31.6 nM. For the same compound, the viability, T/C (second compound 0.0316 µM, first compound 0.0316 µM) was 27%, the viability, T/C (second compound 0.0316 µM, first compound 0.1 µM) was 25.1% and the viability, T/C (second compound 0.0316 µM, first compound 0.316 µM) was 25.5%. It also gave a viability, T/C (second compound 0.0316 µM, first compound 1 µM) of 29.4%, a viability, T/C (second compound 0.0316 µM, first compound 3.16 µM) of 26.9% and a viability, T/C (second compound 0.0316 µM, first compound 10 µM) of 7.04%. For the same compound, the viability, T/C (second compound 0.1 µM, first compound 0.0316 µM) was 26%, the viability, T/C (second compound 0.1 µM, first compound 0.1 µM) was 23.9% and the viability, T/C (second compound 0.1 µM, first compound 0.316 µM) was 25%. It also gave a viability, T/C (second compound 0.1 µM, first compound 1 µM) of 26.7%, a viability, T/C (second compound 0.1 µM, first compound 3.16 µM) of 28% and a viability, T/C (second compound 0.1 µM, first compound 10 µM) of 7.41%. The viability, T/C (second compound 0.316 µM, first compound 0.0316 µM) was 22.5%, the viability, T/C (second compound 0.316 µM, first compound 0.1 µM) was 23% and the viability, T/C (second compound 0.316 µM, first compound 0.316 µM) was 25%. The viability, T/C (second compound 0.316 µM, first compound 1 µM) was 22%, the viability, T/C (second compound 0.316 µM, first compound 3.16 µM) was 18.5% and the viability, T/C (second compound 0.316 µM, first compound 10 µM) was 5.22%. It also gave a viability, T/C (second compound 1 µM, first compound 0.0316 µM) of 20.2%, a viability, T/C (second compound 1 µM, first compound 0.1 µM) of 20.2% and a viability, T/C (second compound 1 µM, first compound 0.316 µM) of 18.7%. The viability, T/C (second compound 1 µM, first compound 1 µM) was 19.6%, the viability, T/C (second compound 1 µM, first compound 3.16 µM) was 17.5% and the viability, T/C (second compound 1 µM, first compound 10 µM) was 2.99%. For the same compound, the viability, T/C (second compound 3.16 µM, first compound 0.0316 µM) was 16.3%, the viability, T/C (second compound 3.16 µM, first compound 0.1 µM) was 15.4% and the viability, T/C (second compound 3.16 µM, first compound 0.316 µM) was 13.3%. It also gave a viability, T/C (second compound 3.16 µM, first compound 1 µM) of 12.9%, a viability, T/C (second compound 3.16 µM, first compound 3.16 µM) of 10.8% and a viability, T/C (second compound 3.16 µM, first compound 10 µM) of 0.7%. For the same compound, the viability, T/C (second compound 10 µM, first compound 0.0316 µM) was 11.8%, the viability, T/C (second compound 10 µM, first compound 0.1 µM) was 10.2% and the viability, T/C (second compound 10 µM, first compound 0.316 µM) was 8.26%. The viability, T/C (second compound 10 µM, first compound 1 µM) was 8.63%, the viability, T/C (second compound 10 µM, first compound 3.16 µM) was 6.11% and the viability, T/C (second compound 10 µM, first compound 10 µM) was 0.26%.
